# Legend:
# [1] = Metabolic stability in dog liver microsome assessed as half life at 1 uM measured up to 60 mins in presence of NADPH by LC-MS/MS analysis; format: ADME, Canis lupus familiaris; conditions: liver microsomes
# hERG (KCNH2) [2] = target: T1, hERG (KCNH2) (Homo sapiens, UniProt Q12809); assay: Inhibition of hERG expressed in HEK293 cells at 3 uM by manual patch clamp assay relative to control; format: toxicity, cell-based; conditions: HEK293 cells expressing hERG
# [3] = Metabolic stability in human liver microsome assessed as half life at 1 uM measured up to 60 mins in presence of NADPH by LC-MS/MS analysis; format: ADME; conditions: liver microsomes
# [4] = target: T2, Protein cereblon/Interleukin-1 receptor-associated kinase 4 (Homo sapiens, UniProt Q9NWZ3+Q96SW2); assay: PROTAC activity at CRBN/IRAK4 in human THP-1 cells assessed as induction of IRAK4 degradation incubated for 24 hrs by HiBiT lytic reagent based analysis; format: cell-based
# Target sequence in this assay (Q9NWZ3 whole entry): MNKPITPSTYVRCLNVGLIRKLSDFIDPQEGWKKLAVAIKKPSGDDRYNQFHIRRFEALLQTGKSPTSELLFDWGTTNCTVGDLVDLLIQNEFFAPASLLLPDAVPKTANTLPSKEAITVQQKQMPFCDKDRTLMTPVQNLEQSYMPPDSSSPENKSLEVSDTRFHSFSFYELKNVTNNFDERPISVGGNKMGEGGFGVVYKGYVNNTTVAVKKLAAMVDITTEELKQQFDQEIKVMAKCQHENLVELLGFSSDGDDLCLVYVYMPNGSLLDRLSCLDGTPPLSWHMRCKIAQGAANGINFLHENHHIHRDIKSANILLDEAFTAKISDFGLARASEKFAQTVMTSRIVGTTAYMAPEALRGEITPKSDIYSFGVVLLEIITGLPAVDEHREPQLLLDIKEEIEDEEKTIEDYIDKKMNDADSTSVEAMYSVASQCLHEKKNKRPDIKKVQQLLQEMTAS
# Target sequence in this assay (Q96SW2 whole entry): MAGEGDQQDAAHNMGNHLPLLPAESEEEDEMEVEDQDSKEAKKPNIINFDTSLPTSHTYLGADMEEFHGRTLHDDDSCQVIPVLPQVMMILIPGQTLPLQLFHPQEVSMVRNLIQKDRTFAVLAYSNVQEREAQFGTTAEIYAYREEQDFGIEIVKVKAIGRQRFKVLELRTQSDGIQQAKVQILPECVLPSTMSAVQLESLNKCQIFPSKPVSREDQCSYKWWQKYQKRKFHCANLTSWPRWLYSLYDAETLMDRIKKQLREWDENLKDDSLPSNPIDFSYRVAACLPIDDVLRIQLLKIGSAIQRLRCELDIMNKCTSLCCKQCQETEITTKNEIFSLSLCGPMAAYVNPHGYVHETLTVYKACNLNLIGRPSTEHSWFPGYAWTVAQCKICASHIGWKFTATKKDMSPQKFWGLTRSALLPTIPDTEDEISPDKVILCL
# [5] = Metabolic stability in mouse liver microsome assessed as half life at 1 uM measured up to 60 mins in presence of NADPH by LC-MS/MS analysis; format: ADME; conditions: liver microsomes
# [6] = target: T2, Protein cereblon/Interleukin-1 receptor-associated kinase 4; assay: PROTAC activity at CRBN/IRAK4 in human THP-1 cells assessed as induction of IRAK4 degradation incubated for 24 hrs by HiBiT lytic reagent based analysis relative to control; format: cell-based
# Target sequence in this assay (Q96SW2 whole entry, looked up): as the sequence (Q96SW2 whole entry) above
# Target sequence in this assay (Q9NWZ3 whole entry, looked up): as the sequence (Q9NWZ3 whole entry) above
# [7] = Metabolic stability in cynomolgus monkey liver microsome assessed as half life at 1 uM measured up to 60 mins in presence of NADPH by LC-MS/MS analysis; format: ADME, Macaca fascicularis; conditions: liver microsomes
# [8] = Metabolic stability in rat liver microsome assessed as half life at 1 uM measured up to 60 mins in presence of NADPH by LC-MS/MS analysis; format: ADME; conditions: liver microsomes
# hERG (KCNH2) [9] = target: T1, hERG (KCNH2); assay: Inhibition of hERG expressed in HEK293 cells at 1 uM by manual patch clamp assay relative to control; format: toxicity, cell-based; conditions: HEK293 cells expressing hERG
# T1 sequence (Q12809 whole entry): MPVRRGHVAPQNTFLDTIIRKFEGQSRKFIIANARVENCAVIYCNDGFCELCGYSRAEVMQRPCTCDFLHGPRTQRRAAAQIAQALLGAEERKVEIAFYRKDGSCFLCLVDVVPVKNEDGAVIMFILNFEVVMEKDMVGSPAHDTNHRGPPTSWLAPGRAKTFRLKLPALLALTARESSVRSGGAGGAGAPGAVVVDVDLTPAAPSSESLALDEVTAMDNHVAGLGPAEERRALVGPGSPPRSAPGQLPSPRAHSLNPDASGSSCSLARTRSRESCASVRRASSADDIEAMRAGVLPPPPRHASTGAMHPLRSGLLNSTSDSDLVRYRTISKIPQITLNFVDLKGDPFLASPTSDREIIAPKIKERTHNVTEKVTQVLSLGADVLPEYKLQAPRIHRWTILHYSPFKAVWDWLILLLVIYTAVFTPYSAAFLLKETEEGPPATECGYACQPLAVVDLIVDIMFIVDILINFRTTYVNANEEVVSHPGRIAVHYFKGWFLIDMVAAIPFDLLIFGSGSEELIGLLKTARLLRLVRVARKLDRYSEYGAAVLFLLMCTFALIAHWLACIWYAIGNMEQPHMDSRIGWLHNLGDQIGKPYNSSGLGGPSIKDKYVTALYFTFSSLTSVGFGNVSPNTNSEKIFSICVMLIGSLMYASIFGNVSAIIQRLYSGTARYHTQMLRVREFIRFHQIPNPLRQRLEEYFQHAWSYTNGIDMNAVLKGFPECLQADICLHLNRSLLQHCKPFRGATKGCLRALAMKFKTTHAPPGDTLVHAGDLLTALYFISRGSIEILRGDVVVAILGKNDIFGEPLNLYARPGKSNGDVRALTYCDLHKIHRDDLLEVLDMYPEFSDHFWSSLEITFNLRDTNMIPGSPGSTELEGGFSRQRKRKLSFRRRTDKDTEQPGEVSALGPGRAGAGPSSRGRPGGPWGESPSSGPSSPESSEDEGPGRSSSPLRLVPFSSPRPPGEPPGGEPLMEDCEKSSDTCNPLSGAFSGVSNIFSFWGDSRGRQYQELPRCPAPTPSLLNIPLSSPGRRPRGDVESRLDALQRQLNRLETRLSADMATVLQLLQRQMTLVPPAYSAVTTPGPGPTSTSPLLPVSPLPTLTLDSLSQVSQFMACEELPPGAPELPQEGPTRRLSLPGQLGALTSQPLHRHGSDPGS
SMILES,half-life at 1 µM [1],half-life at 1 µM [3],DC50 [4],half-life at 1 µM [5],Emax [6],half-life at 1 µM [7],half-life at 1 µM [8],inhibition at 3 µM (hERG (KCNH2) [2]),inhibition at 1 µM (hERG (KCNH2) [9])
Cn1c(=O)n(C2CCC(=O)NC2=O)c2cccc(C#CCOC3CCN(CC(=O)N4CCC5(CC4)Cc4cc(NC(=O)c6cnn7cccnc67)c(N6CCC(CO)CC6)cc4O5)CC3)c21 (stereo not drawn),0.2 h,0.15 h,2.18 nM,1.67 h,,,,8%,
Cn1c(=O)n(C2CCC(=O)NC2=O)c2cccc(C#CCO[C@H]3CC[C@H](CN4CCC5(CC4)Cc4cc(NC(=O)c6cnn7cccnc67)c(OC(F)F)cc4O5)CC3)c21 (stereo partly drawn),,,13 nM,,83%,,,,
Cn1c(=O)n(C2CCC(=O)NC2=O)c2cccc(C#CCO[C@H]3CC[C@H](CN4CCC5(CC4)Cc4cc(NC(=O)c6cnn7cccnc67)c(OCCC(C)(C)O)cc4O5)CC3)c21 (stereo partly drawn),,,9.37 nM,,49%,,,,
Cn1c(=O)n(C2CCC(=O)NC2=O)c2cccc(C#CCO[C@H]3CC[C@H](CN4CCC5(CC4)Cc4cc(NC(=O)c6cnn7cc(CO)cnc67)c(N6CCC(CO)CC6)cc4O5)CC3)c21 (stereo partly drawn),> 3.07 h,> 3.07 h,3.32 nM,1.3 h,90%,> 3.07 h,> 3.07 h,,4%
Cn1c(=O)n(C2CCC(=O)NC2=O)c2cccc(C#CCO[C@H]3CC[C@@H](CN4CCC5(CC4)Cc4cc(NC(=O)c6cnn7cccnc67)c(N6CCC(CO)CC6)cc4O5)CC3)c21 (stereo partly drawn),0.0167 h,0.817 h,3.44 nM,1.98 h,89%,0.183 h,1.47 h,,34%
Cn1c(=O)n(C2CCC(=O)NC2=O)c2cccc(C#CCO[C@H]3CC[C@@H](CN4CCC5(CC4)Cc4cc(NC(=O)c6coc7cccnc67)c(N6CCC(CO)CC6)cc4O5)CC3)c21 (stereo partly drawn),0.967 h,0.333 h,3.69 nM,2.05 h,86%,,,,29%
Cn1c(=O)n(C2CCC(=O)NC2=O)c2cccc(C#CCO[C@H]3CC[C@H](CN4CCC5(CC4)Oc4cc(N6CCC(CO)CC6)c(NC(=O)c6cnn7cccnc67)cc4C5=O)CC3)c21 (stereo partly drawn),,,1000 nM,,20%,,,,
Cn1c(=O)n(C2CCC(=O)NC2=O)c2cccc(C#CCN3CCN(CC(=O)N4CCC5(CC4)Cc4cc(NC(=O)c6cnn7cccnc67)c(N6CCC(CO)CC6)cc4O5)CC3)c21 (stereo not drawn),1.22 h,0.05 h,2.76 nM,1.4 h,,,,18%,
Cc1cc(-c2nc(C(=O)Nc3cc4c(cc3N3CCC(CO)CC3)OC3(CCN(C[C@H]5CC[C@H](OCC#Cc6cccc7c6n(C)c(=O)n7C6CCC(=O)NC6=O)CC5)CC3)C4)co2)ccn1 (stereo partly drawn),> 3.07 h,1.15 h,6.02 nM,1.68 h,85%,,,,12%
Cn1c(=O)n(C2CCC(=O)NC2=O)c2cccc(C#CCO[C@H]3CC[C@H](CN4CCC5(CC4)Cc4cc(NC(=O)c6cnn7cccnc67)c(N6CCC(CO)CC6)cc4C5)CC3)c21 (stereo partly drawn),,,2.77 nM,,78%,,,46%,
CN(CCO)c1cc2c(cc1NC(=O)c1cnn3cccnc13)CC1(CCN(C[C@H]3CC[C@H](OCC#Cc4cccc5c4n(C)c(=O)n5C4CCC(=O)NC4=O)CC3)CC1)O2 (stereo partly drawn),,,6.44 nM,,44%,,,,
CN(CCCO)c1cc2c(cc1NC(=O)c1cnn3cccnc13)CC1(CCN(C[C@H]3CC[C@H](OCC#Cc4cccc5c4n(C)c(=O)n5C4CCC(=O)NC4=O)CC3)CC1)O2 (stereo partly drawn),,,6.92 nM,,68%,,,,
Cn1c(=O)n(C2CCC(=O)NC2=O)c2cccc(C#CCOC3CCN(C(=O)CN4CCC5(CC4)Cc4cc(NC(=O)c6cnn7cccnc67)c(N6CCC(CO)CC6)cc4O5)CC3)c21 (stereo not drawn),0.1 h,0.0667 h,1.92 nM,0.35 h,,,,,
Cn1c(=O)n(C2CCC(=O)NC2=O)c2cccc(C#CCO[C@H]3CC[C@H](CN4CCC5(CC4)Oc4cc(NC(=O)c6cnn7cccnc67)c(N6CCC(CO)CC6)cc4O5)CC3)c21 (stereo partly drawn),,,10.4 nM,,78%,,,,

# Now from value to compound, other results behind:
half-life at 1 µM [1],half-life at 1 µM [3],DC50 [4],half-life at 1 µM [5],Emax [6],half-life at 1 µM [7],half-life at 1 µM [8],SMILES,inhibition at 3 µM (hERG (KCNH2) [2]),inhibition at 1 µM (hERG (KCNH2) [9])
,,3.9 nM,,62%,,,COCC1CCN(c2cc3c(cc2NC(=O)c2cnn4cccnc24)CC2(CCN(C[C@H]4CC[C@H](OCC#Cc5cccc6c5n(C)c(=O)n6C5CCC(=O)NC5=O)CC4)CC2)O3)CC1 (stereo partly drawn),,
> 3.07 h,> 3.07 h,2.27 nM,1.3 h,87%,1.87 h,2.1 h,Cn1c(=O)n(C2CCC(=O)NC2=O)c2cccc(C#CCO[C@H]3CC[C@H](CN4CCC5(CC4)Cc4cc(NC(=O)c6cnn7cc(Cl)cnc67)c(N6CCC(CO)CC6)cc4O5)CC3)c21 (stereo partly drawn),2%,
0.0167 h,0.117 h,14.8 nM,0.267 h,91%,,,Cn1c(=O)n(C2CCC(=O)NC2=O)c2cccc(C#CCO[C@H]3CC[C@@](F)(CN4CCC5(CC4)Cc4cc(NC(=O)c6cnn7cccnc67)c(N6CCC(CO)CC6)cc4O5)CC3)c21 (stereo partly drawn),,8%
> 3.07 h,> 3.07 h,,> 3.07 h,88%,,,Cn1c(=O)n(C2CCC(=O)NC2=O)c2cccc(C#CCO[C@H]3CC[C@](F)(CN4CCC5(CC4)Cc4cc(NC(=O)c6cnn7cccnc67)c(N6CCC(CO)CC6)cc4O5)CC3)c21 (stereo partly drawn),8%,
1.47 h,0.383 h,2.18 nM,> 3.07 h,88%,0.0333 h,1.47 h,Cn1c(=O)n(C2CCC(=O)NC2=O)c2cccc(C#CCOC3CCN(CCN4CCC5(CC4)Cc4cc(NC(=O)c6cnn7cccnc67)c(N6CCC(CO)CC6)cc4O5)CC3)c21 (stereo not drawn),,
,,6.38 nM,,85%,,,Cn1c(=O)n(C2CCC(=O)NC2=O)c2cccc(C#CCO[C@H]3CC[C@H](CN4CCC5(CC4)Cc4cc(NC(=O)c6cnn7cccnc67)c(N6CCC(F)CC6)cc4O5)CC3)c21 (stereo partly drawn),,
> 3.07 h,> 3.07 h,1.52 nM,> 3.07 h,87%,,,Cc1cnc2c(C(=O)Nc3cc4c(cc3N3CCC(CO)CC3)OC3(CCN(C[C@H]5CC[C@H](OCC#Cc6cccc7c6n(C)c(=O)n7C6CCC(=O)NC6=O)CC5)CC3)C4)cnn2c1 (stereo partly drawn),17%,
0.583 h,0.517 h,7.79 nM,0.55 h,90%,,,Cn1c(=O)n(C2CCC(=O)NC2=O)c2cccc(C#CCO[C@H]3CC[C@@H](CN4CCC5(Cc6cc(NC(=O)c7cnn8cccnc78)c(N7CCC(CO)CC7)cc6O5)C4)CC3)c21 (stereo partly drawn),,29%
,,8.48 nM,,46%,,,Cn1c(=O)n(C2CCC(=O)NC2=O)c2cccc(C#CCO[C@H]3CC[C@H](CN4CCC5(CCc6cc(NC(=O)c7cnn8cccnc78)c(N7CCC(CO)CC7)cc6O5)CC4)CC3)c21 (stereo partly drawn),,
> 3.07 h,0.65 h,2.78 nM,1.05 h,86%,,,Cn1c(=O)n(C2CCC(=O)NC2=O)c2cccc(C#CCO[C@H]3CC[C@H](C(=O)N4CCC5(CC4)Cc4cc(NC(=O)c6cnn7cccnc67)c(N6CCC(CO)CC6)cc4O5)CC3)c21 (stereo partly drawn),,2%
> 3.07 h,1.67 h,2 nM,> 3.07 h,84%,,,Cn1c(=O)n(C2CCC(=O)NC2=O)c2cccc(C#CCO[C@H]3CC[C@H](CN4CCC5(Cc6cc(NC(=O)c7cnn8cccnc78)c(N7CCC(CO)CC7)cc6O5)C4)CC3)c21 (stereo partly drawn),,1%

# — ChEMBL document CHEMBL6182949 (J Med Chem, 2025)
